Experimental findings from PMC11436758, “Computer-aided drug design to generate a unique antibiotic family” (Nature Communications, 2024) are described below.

≈ marks a conversion by molar mass, not a printed value.

The target in one experiment is AcpS (Escherichia coli, UniProt P24224). Put plainly: AcpS enzyme activity inhibition (IC50) by DNM compounds, [3H]acetyl-CoA / apo-ACP assay. It is filed as biochemical. As to conditions: three individual replicates. An excerpt: The acpP gene encoding ACP was amplified from E. coli genomic DNA and subcloned into the pGEX4T-1 vector. This construct drives the expression of glutathione S-transferase (GST) fused to the ACP open reading frame through a linker containing a consensus sequence for thrombin cleavage. The identity and veracity of acpP was verified by DNA sequencing. BL21 E. coli cells expressing GST-ACP were suspended in ice-cold phosphate buffer saline (PBS) and lysed by sonication. The lysate was made 1% Triton X-100 and rested on ice for 30 min with occasional mixing. A clear supernatant was isolated by centrifugation at 46,000 × g for 30 min, brought to 10 mM MgCl2 and 2 mM MnCl2 and incubated at room temperature for 1 h with occasional mixing. The supplementation of the lysate to 10 mM MgCl2 and 2 mM MnCl2 favors the activity of endogenous ACP phosphodiesterase (acpH) enriching the apo- fraction of GST-ACP. GST-ACP was affinity purified upon binding to glutathione-sepharose. The ACP moiety was eluted from the affinity resin by in-column thrombin digestion. Apo-ACP was separated from holo-ACP and acylated forms of ACP by ion-exchange chromatography on a Mono-Q 5/50 GL at pH 6.1 operated from an AKTA Pure 25 platform. The purity of the apo-ACP preparation was assessed by 20% PAGE on native gels containing 0.5 M urea.
Chain of AcpS (P24224 2-126): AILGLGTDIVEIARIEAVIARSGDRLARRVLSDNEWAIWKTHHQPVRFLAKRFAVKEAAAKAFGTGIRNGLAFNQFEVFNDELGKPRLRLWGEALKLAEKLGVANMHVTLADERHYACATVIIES
The acpS gene was amplified from S. aureus and E. coli genomic DNA and inserted into a pET23b vector using standard recombinant DNA methodology such that the protein product would result in addition of a C-terminal 6x-His tag in frame with the AcpS open reading frames. The DNA sequences inserted in the vector were sequenced and found to be identical to the known E. coli and S. aureus acpS open reading frames. Recombinant His-Tagged AcpS expression was induced by IPTG addition and overnight culture. Cell lysate was obtained by sequential aspiration through 16, 18 and 21 G needles in a buffer of 50 mM Tris-HCl (pH 8.5), 10 mM MgCl2, 2 mM DTT, 5% glycerol, and further adjusted to pH 8.1 with MES. […] In a typical AcpS enzyme activity assay, 57 µM [^3H]acetyl-CoA, 2 µg apo-ACP, 10 mM MgCl2, 5 mM DTT, 50 mM Na phosphate (pH 7.0), and AcpS in a final volume of 10 µL were incubated at room temperature in a 1.5 mL microcentrifuge tube. At 5, 10, 15, and 20 min 2 µL of reaction were added to 750 µl 10% TCA on ice. Bovine serum albumin (BSA; 20 µl of a 25 mg/mL solution) was then added to facilitate precipitation of radiolabeled protein. The samples were centrifuged at 12,000 × g for 5 min. Supernatants were removed, and the pellets were rinsed twice with 750 µl of 10% trichloroacetic acid. Pellets were resuspended in 50 µl of formic acid and transferred to scintillation vials. 2 mL of scintillation fluid was added, and the amount of [^3H]-labeled holo-ACP formed was quantified by liquid scintillation counting. The enzymatic reaction proceeded in a linear manner depending on time (10–40 min) and enzyme concentration (1–5 nM). Routinely, each data point was determined at least by triplicate.

Experiment [1] relates to MRSA (ATCC 33591). As to the kind of experiment: Rabbit ischemic ear wound model of infection by MRSA, topical treatment. It is filed as in vivo, New Zealand White rabbits. The settings on record: for reduction in bacterial survival as compared to vehicle control: quantitative microbiology at day 14, topical; for wound closure: topical for 14 days, versus vehicle control. The protocol: New Zealand White rabbits from Charles River were employed for this study. Both male and female rabbits were used; sample size prevented disaggregation of data by sex. Investigators were blinded to group allocation, data collection, and data analysis. Food and water were given ad libidum and animals were acclimatized for 7 days with photoperiods of alternating 12 h light and dark at 21 °C in relative humidity of 40–50%. The formulation for delivery of DNM compounds was Glaxal base (WellSpring Pharmaceutical Canada Corp., Oakville, Canada). Formulation was performed by dissolving compound in Glaxal base to give final concentrations of 1% or 2% DNM compound (w/v). The analgesic (Buprenex 0.02 mg/kg sc) and anesthesia (isoflurane (0.5–5% with oxygen carrier 0.5–2 L/min) were used as required during procedures. An ischemia wound healing model was conducted surgically. Each wound was inoculated with 50 μl of 2 × 10^7 CFU/mL MRSA (ATCC #33591) and dressed. After 1 day, wounds were treated with either 50 μl control cream containing vehicle or 50 μl cream containing compound daily. Wounds were assessed and observations recorded using the Draize scoring system. Digital photographs of each wound were obtained and documented.

Experiment [2] has as its system MRSA (ATCC 33591). Put plainly: MIC, CLSI broth microdilution. It is filed as cell-based, S. aureus. The settings on record: three individual replicates. The protocol: The medium employed for the assay was Mueller Hinton II Broth (MHB II; Becton-Dickinson, Sparks, MD, USA). Agar plates used for the organisms were trypticase soy agar plus 5% sheep blood (BD; Sparks, MD, USA). MIC assay plates were prepared using the CLSI broth microdilution procedure. Automated liquid handlers (Multidrop 384, Biomek 2000 and Biomek FX) were used to conduct serial dilutions and liquid transfers. A standardized inoculum of each organism was prepared per CLSI methods. Suspensions were prepared to equal a 0.5 McFarland standard, followed by a 1:20 dilution in test media. The inocula were dispensed into sterile reservoirs divided by length (Beckman Colter) and the Biomek 2000 was used to inoculate the plates. Daughter plates were placed on the Biomek 2000 work surface in reverse orientation so that inoculation took place from low to high drug concentration. The Biomek 2000 delivered 10 μL of the diluted suspension into each well. These inoculations yielded a final cell concentration in the daughter plates of ~5 × 10^5 colony-forming units/mL in each well. The wells of the daughter plates ultimately contained 185 μL of broth, 5 μL of drug solution, and 10 μL of bacterial inoculum. Plates were covered with a sterile lid on the top plate, placed in plastic bags, and incubated at 35 °C for ~18 h. The microplates were viewed from the bottom using a plate viewer and the MIC was read. The MIC was recorded as the lowest concentration of drug that inhibited visible growth of the organism. Uninoculated solubility control plates were also observed for evidence of drug precipitation.

One may read the IC50 as the concentration that gives 50% inhibition. In general, MIC refers to the lowest concentration that inhibits growth of the organism. A higher MIC goes with a less susceptible organism. Turning to `Cc1cc(Cl)ccc1-c1sc(-c2nnn[nH]2)c(C)c1-c1ccc(Cl)cc1C` [DNM0614], half-maximal inhibition against AcpS (IC50) required 13 µM. In the experiment on MRSA (ATCC 33591) [1], the “reduction in bacterial survival as compared to vehicle control” value is reported as over 99% and the wound closure entry was “significantly improved wound closure”. In the experiment with MRSA (ATCC 33591) [2], this molecule came in with an MIC of 1 µg/mL (≈ 2.41 µM).
For `Clc1ccc(-c2cc(-c3nnn[nH]3)sc2-c2ccc(Cl)cc2)cc1` [DNM0487], the IC50 on AcpS stood at 1 µM. In addition, in the experiment with MRSA (ATCC 33591) [1], the “reduction in bacterial survival as compared to vehicle control” value is over 99% and the wound closure entry was “significantly improved wound closure”. For the same molecule, the MIC against MRSA (ATCC 33591) [2] came to 2 µg/mL (≈ 5.36 µM).
